# Results reported in patent US7786129B2, “Piperazine derivatives of dialkyl oxindoles” (Egis Gyogyszergyar Nyrt, priority 2004, dated 2010).
# Counter-ions that a name gives are not always drawn. Marks after values point to notes of the source that are not given here.
# Key:
# 5-HT2C receptor = molecular target: T1, 5-HT2C receptor (Sus scrofa, UniProt K7GSR7); assay: 5-HT2C receptor binding; parameters: species or system pig; conditions: choroid plexus of pigs, ligand 3H-mesulergin 1.0 nM
# T1 construct: from tissue; host or cells: pig choroid plexus membrane preparation
# T1 sequence (K7GSR7 1-457): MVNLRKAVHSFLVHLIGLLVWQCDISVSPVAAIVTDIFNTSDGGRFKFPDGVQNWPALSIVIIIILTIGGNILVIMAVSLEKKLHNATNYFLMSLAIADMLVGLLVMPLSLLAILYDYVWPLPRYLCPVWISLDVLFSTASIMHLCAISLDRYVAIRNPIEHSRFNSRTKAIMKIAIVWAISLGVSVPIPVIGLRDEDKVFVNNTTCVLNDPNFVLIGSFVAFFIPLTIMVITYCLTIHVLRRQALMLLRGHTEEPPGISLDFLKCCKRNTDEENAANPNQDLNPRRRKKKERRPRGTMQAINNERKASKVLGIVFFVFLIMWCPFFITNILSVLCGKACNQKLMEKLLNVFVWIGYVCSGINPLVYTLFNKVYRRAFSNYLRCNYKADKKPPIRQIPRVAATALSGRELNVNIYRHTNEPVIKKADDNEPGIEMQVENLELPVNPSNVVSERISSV
# Protocol: (§1) Receptor bindings—with the exception of the 5-HT2C receptor binding—were determined by using cerebral region preparations of male Wistar rats weighing 120-200 g. For the preparation of 5-HT1A receptor binding frontal cortex preparations were used. The al receptor binding studies were performed from isolated frontal cortex pre-parations. For the 5-HT2C receptor binding experiments choroid plexus of pigs was used. The protein contents of membrane preparations were determined by the method of Lowry (1951).
# (§2) In the course of 5-HT2C and α1 receptor binding experiments the ligands were ^3H-mesulergin (1.0 nM) and ^3H-prazosine (0.3 nM), respectively. The non-specifically binding ligands were mianserine (1 μM and prazosine (1 μM), respectively.
# (§3) The IC50 value is the value of concentration where the difference between total and non-specific binding is 50% in the presence of a determined concentration of a specific ligand.
# α1 receptor = α1 receptor binding experiment; conditions: rat isolated frontal cortex preparation, ligand 3H-prazosine 0.3 nM
# Protocol: as §1, §2, §3
# 5-HT1A receptor = molecular target: T2, 5-HT1A receptor (Rattus norvegicus, UniProt P19327); assay: 5-HT1A receptor binding; conditions: rat frontal cortex preparation, ligand tritiated 8-OH-DPAT
# T2 construct: from tissue; host or cells: rat frontal cortex membrane preparation
# T2 sequence (P19327 1-422): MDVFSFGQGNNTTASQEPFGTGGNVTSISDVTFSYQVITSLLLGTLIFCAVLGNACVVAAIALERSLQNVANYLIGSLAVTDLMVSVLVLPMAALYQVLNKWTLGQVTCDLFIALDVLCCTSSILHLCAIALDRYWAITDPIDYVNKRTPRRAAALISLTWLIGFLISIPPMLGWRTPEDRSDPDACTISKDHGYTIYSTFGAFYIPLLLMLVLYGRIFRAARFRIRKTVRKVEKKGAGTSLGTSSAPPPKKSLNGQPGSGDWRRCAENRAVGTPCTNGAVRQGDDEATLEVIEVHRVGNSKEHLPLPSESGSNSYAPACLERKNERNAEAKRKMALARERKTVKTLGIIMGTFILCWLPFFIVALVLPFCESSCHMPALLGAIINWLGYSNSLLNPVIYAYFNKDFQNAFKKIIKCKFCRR
# Protocol: as §1
# 5-HT1A receptor binding was measured according to the method of Peroutka (Peroutka, S. J.: J. Neurochem. 47, p. 529 (1986)). The ligand was tritiated 8-hydroxy-N,N-dipropyl-2-aminotetraline (8-OH-DPAT). For the determination of non-specific binding 10 μM serotonin was applied. Incubation […] volume was 250 μl. Incubation was carried out at a temperature of 25 C for 30 minutes. The reaction was terminated by the addition of 9 ml of ice-cold 50 mM TRIS-HCl (pH 7.7) buffer and quick vacuum filtration using Whatman GFIB fibreglass filtering paper. Radioactivity of the filter boards was measured by liquid scintillation spectrometry.
# as §3
# Male Wistar rats = assay: Vogel's drinking conflict test; type: in vivo; conditions: ip, 0.5 h, rat, i.p. 30 min prior to test, increase in tolerated shocks, read-out: MED
# Protocol: The anxiolytic effect of the compounds according to the invention was investigated on rats according to Vogel's drinking conflict test and elevated plus-maze test (S. Pelow, P. Chopin, S. E. File, J. Briley: Neurosci. Methods 14, p. 149 (1985)).
# Male Wistar rats weighing 160-180 g were used for the experiment. The animals were deprived of drinking water for 48 hours and fasted for 24 hours prior to test. The test compounds or vehicle were administered intraperitoneally, 30 min prior to test. […] Following every 20 licks electric shocks (0.7 mA) were applied through the drinking spout during the 5 min test period. The number of punished licks were recorded. The effect of the test compounds was expressed as % increase in numbers of tolerated shocks. Minimal effective doses (MED) were determined for each compound.
# Male Mongolian gerbils = assay: Neuroprotective effect in global ischemia test (bilateral carotid occlusion); type: in vivo, Mongolian gerbil; conditions: gerbil
# Protocol: Male Mongolian gerbils weighing 60-90 g were used as test animals. The test compounds were administered intraperitoneally at a dose of 30 mg/kg 45 min after surgery. Test substances were suspended in 0.4% methylcellulose solution. In diethylether narcosis, the right and left common carotid arteries were exposed through an anterior midline cervical incision and isolated from the vagus nerves and the surrounding tissues. Full arrest of carotid blood flow was achieved by tightening an aneurysm clip for 3 min. During surgery the body temperature of the animals was kept at the individual preoperative level (37.5±0.5° C.) with the help of a heating pad and a heating lamp.
# 4 days after the surgery the animals were anaesthetized with 60 mg/kg i.p nembutal (10 ml/kg) and perfused through the heart first with saline then with a fixative solution containing 0.1% glutaraldehyde, 4% paraformaldehyde and 0.2% picric acid in 0.1 M phosphate buffer (pH 7.4) for 30 min. The brain was removed from the skull and post fixed for at least 1 week at 4° C. in the same fixative solution.
# Alternate coronal sections of 60 μm thickness were cut from different levels of the dorsal hippocampus by a microtome. The sections were repeatedly washed in 0.1 M phosphate buffer (pH 7.4) and stained by silver impregnation. The sections were stored twice in a preparatory solution (2% sodium hydroxide and 0.875% ammonium hydroxide solution) for 5 minutes, impregnated for 10 minutes in 0.875% ammonium hydroxide and 0.5% silver nitrate solution) and placed into a washing solution (0.5% sodium carbonate and 0.01% ammonium nitrate dissolved in a 29.1% aqueous ethanol solution) twice for 2 minutes and once for one minute. The slices were then developed in 9.9% ethanol solution containing 1.5% formaldehyde and 0.01% ammonium nitrate and fixed three times for 3 minutes in a 0.5% acetic acid solution. The stained slices were placed in 0.1M phosphate buffer (pH 7.4) and chrome gelatine, applied on plates, dehydrated and treated with xylol. The cover plates were fixed with DPX glue (Fluka).
# The sections were examined under light microscopy and the overall neuronal damage in the hippocampal CA1 subfield in both hippocampi was scored on a 6-point scale: (O) undamaged, (1)—0-10%; (2)—10-30%; (3)—30-50%; (4)—50-70%; (5)—70-90%; (6)—90-100% cell loss. Group differences between drug-treated and vehicle-treated groups were statistically analysed by Mann-Whitney U-test.
compound,measurement,setting,value
"CCC1(CCCN2CCN(c3cccc(Cl)c3)CC2)C(=O)Nc2ccc(Cl)cc21 (centres unmarked) [Example 57, 5-Chloro-3-{3-[4-(3-chlorophenyl)-piperazin-1-yl]-propyl}-3-ethyl-1,3-dihydro-2H-indol-2-one]",IC50,5-HT2C receptor,< 50 nM
same,melting point,,117 to 119 °C
"CCC1(CCCCN2CCN(c3ccccn3)CC2)C(=O)Nc2ccc(Br)cc21 (centres unmarked) [Example 59, 5-Bromo-3-ethyl-3-[4-(4-pyridin-2-yl-piperazin-1-yl)-butyl]-1,3-dihydro-2H-indol-2-one]",IC50,α1 receptor,< 100 nM
same,melting point,,114 to 115 °C
"CCC1(CCCCN2CCN(c3cccc(Cl)c3)CC2)C(=O)Nc2ccccc21 (centres unmarked) [Example 60, 3-{4-[4-(3-Chlorophenyl)-piperazin-1-yl]-butyl}-3-ethyl-1,3-dihydro-2H-indol-2-one-H2O—HCl-isopropanol (1:1:1:1)]",IC50,α1 receptor,< 100 nM
"CCC1(CCCCN2CCN(c3cccc(Cl)c3)CC2)C(=O)Nc2ccc(Br)cc21 (centres unmarked) [Example 61, 5-Bromo-3-{4-[4-(3-chlorophenyl)-piperazin-1-yl]-butyl}-3-ethyl-1,3-dihydro-2H-indol-2-one monooxalate]",IC50,5-HT2C receptor,< 100 nM
same,IC50,5-HT1A receptor,> 200 nM
"CC(C)CC1(CCCCN2CCN(c3ccccn3)CC2)C(=O)Nc2ccccc21 (centres unmarked) [Example 62, 3-Isobutyl-3-[4-(4-pyridin-2-yl-piperazin-1-yl)-butyl]-1,3-dihydro-2H-indol-2-one]",IC50,α1 receptor,< 100 nM
same,melting point,,158 to 159 °C
"CCC1(CCCCN2CCN(c3cccc4c3OCCO4)CC2)C(=O)Nc2ccccc21 (centres unmarked) [Example 63, 3-{4-[4-(2,3-Dihydrobenzo[1,4]dioxin-5-yl)-piperazin-1-yl]-butyl}-3-ethyl-1,3-dihydro-2H-indol-2-one]",IC50,α1 receptor,< 50 nM
same,melting point,,169 to 170 °C
"CC(C)CC1(CCCCN2CCN(c3cccc4c3OCCO4)CC2)C(=O)Nc2ccccc21 (centres unmarked) [Example 64, 3-{4-[4-(2,3-Dihydrobenzo[1,4]dioxin-5-yl)-piperazin-1-yl]-butyl}-3-isobutyl-1,3-dihydro-2H-indol-2-one]",IC50,α1 receptor,< 50 nM
same,melting point,,152 to 154 °C
"CCC1(CCCCN2CCN(c3ccccc3)CC2)C(=O)Nc2ccccc21 (centres unmarked) [Example 68, 3-[4-(4-Phenylpiperazin-1-yl)-butyl]-3-ethyl-1,3-dihydro-2H-indol-2-one monooxalate]",minimal effective dose,Male Wistar rats,10 mg/kg
same,IC50,5-HT2C receptor,< 100 nM
same,IC50,5-HT1A receptor,> 200 nM
"CCC1(CCCCN2CCN(c3ccccc3OC)CC2)C(=O)Nc2ccccc21 (centres unmarked) [Example 69, 3-Ethyl-3-{4-[4-(2-methoxyphenyl)-piperazin-1-yl]-butyl}-1,3-dihydro-2H-indol-2-one monooxalate]",minimal effective dose,Male Wistar rats,10 mg/kg
"CCC1(CCCCN2CCN(c3ccccn3)CC2)C(=O)Nc2ccccc21 (centres unmarked) [Example 71, 3-Ethyl-3-[4-(4-pyridin-2-yl-piperazin-1-yl)-butyl]-1,3-dihydro-2H-indol-2-one]",minimal effective dose,Male Wistar rats,20 mg/kg
"CCC1(CCCCN2CCN(c3cccc(Cl)c3)CC2)C(=O)Nc2ccc(S(N)(=O)=O)cc21 (centres unmarked) [Example 72, 3-{4-[4-(3-Chlorophenyl)-piperazin-1-yl]-butyl}-3-ethyl-1,3-dihydro-2H-indol-2-one 5-sulfonamide monooxalate]",IC50,5-HT2C receptor,< 100 nM
same,IC50,5-HT1A receptor,> 200 nM
"CC(C)CC1(CCCCN2CCN(c3cccc(Cl)c3)CC2)C(=O)Nc2ccccc21 (centres unmarked) [Example 75, 3-{4-[4-(3-Chlorophenyl)-piperazin-1-yl]-butyl}-3-isobutyl-1,3-dihydro-2H-indol-2-one monohydrochloride]",minimal effective dose,Male Wistar rats,10 mg/kg
same,IC50,5-HT1A receptor,> 200 nM
"CCC1(CCCCN2CCN(c3cccc(Cl)c3)CC2)C(=O)Nc2c(Cl)cc(Cl)cc21 (centres unmarked) [Example 79, 5,7-Dichloro-3-[4-[4-(3-chlorophenyl)-piperazin-1-yl]-butyl]-3-ethyl-1,3-dihydro-2H-indol-2-one]",IC50,5-HT1A receptor,> 400 nM
same,melting point,,182 to 183 °C
"CCC1(CCCCN2CCN(c3ccc(Cl)cc3)CC2)C(=O)Nc2cc(F)ccc21 (centres unmarked) [Example 86, 3-{4-[4-(4-Chlorophenyl)-piperazin-1-yl]-butyl}-3-ethyl-6-fluoro-1,3-dihydro-2H-indol-2-one]",IC50,5-HT1A receptor,> 300 nM
same,melting point,,145 to 147 °C
"CCC1(CCCCN2CCN(c3cccc(Cl)c3)CC2)C(=O)Nc2cc(F)c(Cl)cc21 (centres unmarked) [Example 89, 5-Chloro-3-{4-[4-(3-chlorophenyl)-piperazin-1-yl]-butyl}-3-ethyl-6-fluoro-1,3-dihydro-2H-indol-2-one monohydrochloride]",IC50,5-HT1A receptor,> 300 nM
"CCC1(CCCCN2CCN(c3ccc(Cl)cc3)CC2)C(=O)Nc2ccc(F)cc21 (centres unmarked) [Example 90, 3-{4-[4-(4-Chlorophenyl)-piperazin-1-yl]-butyl}-3-ethyl-5-fluoro-1,3-dihydro-2H-indol-2-one]",IC50,5-HT1A receptor,> 300 nM
same,Effect (%),"Male Mongolian gerbils; change of CA1 cell loss score vs. control, 30 mg/kg i.p.",−38%
same,CA1 cell loss (score),"Male Mongolian gerbils; 30 mg/kg i.p. 45 min after surgery, scored 4 days after surgery on 6-point scale",2.73* score
same,melting point,,148 to 150 °C
"CCC1(CCCCN2CCN(c3ccc(Cl)c(C(F)(F)F)c3)CC2)C(=O)Nc2ccccc21 (centres unmarked) [Example 96, 3-{4-[4-(4-Chloro-3-trifluoromethyl-phenyl)-piperazin-1-yl]-butyl}-3-ethyl-1,3-dihydro-2H-indol-2-one monohydrochloride]",IC50,5-HT1A receptor,> 400 nM
